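A five-concentration, 48-hour dose response in 96-well plates underlies each endpoint, interpolated linearly between surrounding concentrations. GI50 = concentration required for 50% inhibition of growth. The concentration for full growth arrest is given as TGI.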
How the values were obtained:
Test in all cases: NCI-60 cell line screen, 48 h
[1] = system: 786-0 renal
[2] = system: A498 renal
[3] = system: A549 NSCLC
[4] = system: ACHN renal
[5] = system: BT-549 breast
[6] = system: CAKI-1 renal
[7] = system: CCRF-CEM leukemia
[8] = system: DU-145 prostate
[9] = system: EKVX NSCLC
[10] = system: HCC-2998 colon
[11] = system: HCT-116 colon
[12] = system: HCT-15 colon
[13] = system: HL-60(TB) leukemia
[14] = system: HOP-62 NSCLC
[15] = system: HOP-92 NSCLC
[16] = system: HS 578T breast
[17] = system: HT29 colon
[18] = system: IGROV1 ovarian
[19] = system: K-562 leukemia
[20] = system: KM12 colon
[21] = system: LOX IMVI melanoma
[22] = system: M14 melanoma
[23] = system: MALME-3M melanoma
[24] = system: MCF7 breast
[25] = system: MDA-MB-231 breast
[26] = system: MDA-MB-435
[27] = system: MOLT-4 leukemia
[28] = system: NCI-H226 lung
[29] = system: NCI-H23 lung
[30] = system: NCI-H460 lung
[31] = system: NCI-H522 lung
[32] = system: NCI/ADR-RES ovarian
[33] = system: OVCAR-3 ovarian
[34] = system: OVCAR-4 ovarian
[35] = system: OVCAR-5 ovarian
[36] = system: OVCAR-8 ovarian
[37] = system: PC-3 prostate
[38] = system: RPMI-8226 leukemia
[39] = system: RXF 393 renal
[40] = system: SF-268 CNS
[41] = system: SF-295 CNS
[42] = system: SF-539 CNS
[43] = system: SK-MEL-2 melanoma
[44] = system: SK-MEL-28 melanoma
[45] = system: SK-MEL-5 melanoma
[46] = system: SK-OV-3 ovarian
[47] = system: SN12C renal
[48] = system: SNB-19 CNS
[49] = system: SNB-75 CNS
[50] = system: SR leukemia
[51] = system: SW-620 colon
[52] = system: T-47D breast
[53] = system: TK-10 renal
[54] = system: U251 CNS
[55] = system: UACC-257 melanoma
[56] = system: UACC-62 melanoma
[57] = system: UO-31 renal
[58] = system: COLO 205 colon

Compound COc1ccc(Cn2cc3c(c2-c2cc(OC)c(OC)c(OC)c2)CCc2cnoc2-3)cc1 has a GI50 [1] of 0.575 µM, a TGI [1] of over 100 µM and a GI50 [2] of 0.162 µM. It also gave a TGI [2] of 0.726 µM, a GI50 [3] of 0.372 µM and a TGI [3] of over 100 µM. For the same compound, the GI50 [4] was 0.849 µM, the TGI [4] was over 100 µM and the GI50 [5] was 1.62 µM. The TGI [5] was over 100 µM, the GI50 [6] was 0.334 µM and the TGI [6] was over 100 µM. For the same compound, the GI50 [7] was 0.291 µM, the TGI [7] was over 24.3 µM and the GI50 [8] was 0.309 µM. For the same compound, the TGI [8] was over 100 µM, the GI50 [9] was 0.397 µM and the TGI [9] was over 100 µM. For the same compound, the GI50 [10] was 0.557 µM, the TGI [10] was over 100 µM and the GI50 [11] was 0.386 µM. For the same compound, the TGI [11] was over 100 µM, the GI50 [12] was 0.354 µM and the TGI [12] was over 100 µM. For the same compound, the GI50 [13] was 0.204 µM, the TGI [13] was 0.647 µM and the GI50 [14] was 0.446 µM. For the same compound, the TGI [14] was over 100 µM, the GI50 [15] was over 21.4 µM and the TGI [15] was over 100 µM. The GI50 [16] was 0.238 µM, the TGI [16] was 0.805 µM and the GI50 [17] was 0.335 µM. For the same compound, the TGI [17] was 10.3 µM, the GI50 [18] was 0.394 µM and the TGI [18] was over 100 µM. For the same compound, the GI50 [19] was 0.111 µM, the TGI [19] was over 32.3 µM and the GI50 [20] was 0.281 µM. It also gave a TGI [20] of over 24.1 µM, a GI50 [21] of 0.813 µM and a TGI [21] of over 100 µM. For the same compound, the GI50 [22] was 0.216 µM, the TGI [22] was 0.87 µM and the GI50 [23] was 0.239 µM. The TGI [23] was over 100 µM, the GI50 [24] was 0.163 µM and the TGI [24] was over 100 µM. It also gave a GI50 [25] of 0.735 µM, a TGI [25] of over 100 µM and a GI50 [26] of 0.0404 µM. The TGI [26] was 0.208 µM, the GI50 [27] was 0.468 µM and the TGI [27] was over 100 µM. It also gave a GI50 [28] of 1.58 µM, a TGI [28] of over 100 µM and a GI50 [29] of 0.388 µM. For the same compound, the TGI [29] was over 100 µM, the GI50 [30] was 0.332 µM and the TGI [30] was 1.88 µM. It also gave a GI50 [31] of 0.107 µM, a TGI [31] of 1.17 µM and a GI50 [32] of 0.242 µM. For the same compound, the TGI [32] was over 100 µM, the GI50 [33] was 0.189 µM and the TGI [33] was 0.484 µM. It also gave a GI50 [34] of 0.768 µM, a TGI [34] of over 100 µM and a GI50 [35] of 3.68 µM. For the same compound, the TGI [35] was over 100 µM, the GI50 [36] was 0.485 µM and the TGI [36] was over 100 µM. It also gave a GI50 [37] of 0.473 µM, a TGI [37] of over 100 µM and a GI50 [38] of 0.356 µM. The GI50 [39] was 0.26 µM, the TGI [39] was over 100 µM and the GI50 [40] was 1.18 µM. It also gave a TGI [40] of over 100 µM, a GI50 [41] of 0.129 µM and a TGI [41] of 0.821 µM. For the same compound, the GI50 [42] was 0.283 µM, the TGI [42] was 2.39 µM and the GI50 [43] was 3.24 µM. The TGI [43] was over 100 µM, the GI50 [44] was 0.517 µM and the TGI [44] was over 100 µM. The GI50 [45] was 0.276 µM, the TGI [45] was 4.99 µM and the GI50 [46] was 0.365 µM. For the same compound, the TGI [46] was over 100 µM, the GI50 [47] was 0.715 µM and the TGI [47] was over 100 µM. It also gave a GI50 [48] of 0.502 µM, a TGI [48] of over 100 µM and a GI50 [49] of 0.147 µM. For the same compound, the TGI [49] was 0.746 µM, the GI50 [50] was 0.175 µM and the TGI [50] was 1.42 µM. For the same compound, the GI50 [51] was 0.314 µM, the TGI [51] was over 100 µM and the GI50 [52] was 0.82 µM. For the same compound, the TGI [52] was over 100 µM, the GI50 [53] was 0.842 µM and the TGI [53] was over 100 µM. For the same compound, the GI50 [54] was 0.393 µM, the TGI [54] was over 100 µM and the TGI [55] was over 100 µM. The GI50 [56] was 0.342 µM, the TGI [56] was over 23 µM and the GI50 [57] was 0.542 µM. It also gave a TGI [57] of over 100 µM.

O=Nc1c(-c2c(O)[nH]c3ccc(Br)cc23)[nH]c2ccccc12 was tested, and the GI50 [1] was 3.25 µM, the TGI [1] was 14.1 µM and the GI50 [2] was 3.7 µM. For the same compound, the TGI [2] was 8.07 µM, the GI50 [3] was 3.21 µM and the TGI [3] was over 100 µM. The GI50 [4] was 2.25 µM, the TGI [4] was 7.69 µM and the GI50 [5] was 4.57 µM. The TGI [5] was 20.2 µM, the GI50 [6] was 3.44 µM and the TGI [6] was over 100 µM. For the same compound, the GI50 [7] was 3.22 µM, the TGI [7] was 16.8 µM and the GI50 [58] was 2.82 µM. The TGI [58] was 13.9 µM, the GI50 [8] was 3.01 µM and the TGI [8] was 11.8 µM. For the same compound, the GI50 [9] was 3 µM, the TGI [9] was 15.5 µM and the GI50 [12] was 2.72 µM. The TGI [12] was 8.4 µM, the GI50 [13] was 3.38 µM and the TGI [13] was 6.22 µM. For the same compound, the GI50 [14] was 4.4 µM, the TGI [14] was 13.8 µM and the GI50 [15] was 6.25 µM. It also gave a TGI [15] of 45.1 µM, a GI50 [16] of 3.03 µM and a TGI [16] of 10.2 µM. The GI50 [17] was 8.3 µM, the TGI [17] was over 100 µM and the GI50 [18] was 2.5 µM. The TGI [18] was over 100 µM, the GI50 [19] was 2 µM and the TGI [19] was 4.87 µM. The GI50 [20] was 1.14 µM, the TGI [20] was 5.2 µM and the GI50 [21] was 2.18 µM. It also gave a TGI [21] of 11 µM, a GI50 [23] of 21.8 µM and a TGI [23] of over 100 µM. The GI50 [24] was 2.21 µM, the TGI [24] was 8.48 µM and the GI50 [25] was 3.55 µM. It also gave a TGI [25] of 21.8 µM, a GI50 [26] of 5.47 µM and a TGI [26] of over 100 µM. The GI50 [27] was 2.93 µM, the TGI [27] was 7.21 µM and the GI50 [28] was 3.89 µM. It also gave a TGI [28] of 16.7 µM, a GI50 [29] of 3.13 µM and a TGI [29] of 12.8 µM. For the same compound, the GI50 [30] was 2.4 µM, the TGI [30] was 5.99 µM and the GI50 [31] was 3.35 µM. For the same compound, the TGI [31] was 47.6 µM, the GI50 [32] was 4.24 µM and the TGI [32] was 63.4 µM. It also gave a GI50 [33] of 4.03 µM, a TGI [33] of 67.3 µM and a GI50 [34] of 5.94 µM. It also gave a TGI [34] of 74.4 µM, a GI50 [35] of 5.14 µM and a TGI [35] of 16.9 µM. It also gave a GI50 [36] of 4.29 µM, a TGI [36] of over 100 µM and a GI50 [37] of 3.38 µM. The TGI [37] was 78.9 µM, the GI50 [38] was 3.56 µM and the TGI [38] was 25.5 µM. The GI50 [39] was 3.62 µM, the TGI [39] was over 100 µM and the GI50 [40] was 3.75 µM. The TGI [40] was 22.6 µM, the GI50 [41] was 9.8 µM and the TGI [41] was 54.1 µM. It also gave a GI50 [42] of 2.62 µM, a TGI [42] of 7.47 µM and a GI50 [43] of 2.65 µM. The TGI [43] was over 100 µM, the GI50 [44] was 9.12 µM and the TGI [44] was over 100 µM. The GI50 [45] was 1.24 µM, the TGI [45] was 2.53 µM and the GI50 [46] was 5.22 µM. It also gave a TGI [46] of 77.3 µM, a GI50 [47] of 4.09 µM and a TGI [47] of over 100 µM. For the same compound, the GI50 [48] was 7.99 µM, the TGI [48] was over 100 µM and the GI50 [49] was 7.58 µM. The TGI [49] was 28.3 µM, the GI50 [50] was 2.12 µM and the TGI [50] was 5.62 µM. It also gave a GI50 [51] of 3.64 µM, a TGI [51] of 9.41 µM and a GI50 [52] of 12.1 µM. For the same compound, the TGI [52] was over 100 µM, the GI50 [53] was 3.77 µM and the TGI [53] was over 100 µM. For the same compound, the GI50 [54] was 4.83 µM, the TGI [54] was 23.1 µM and the GI50 [55] was 15 µM. It also gave a TGI [55] of over 100 µM, a GI50 [56] of 4.96 µM and a TGI [56] of 15.1 µM. It also gave a GI50 [57] of 2.81 µM and a TGI [57] of over 100 µM.

From PubChem BioAssay (NCI)
